{
  "source": "patent US20110171294A1",
  "about": "“Enzyme composition and application thereof in the treatment of pancreatic insufficiency” (DSM IP ASSETS B.V., priority 2008, published 2011)",
  "key": {"[1]": {"test_system": "proline specific protease", "experiment": "Effect of pepstatin on the proline specific protease", "assay_type": "biochemical, Aspergillus niger", "conditions": "pepstatin 1.67 microgram/ml", "procedure": "Prerequisite for a successful enzyme therapy according to the present application is an efficient degradation of dietary proteinaceous material in the stomach. […] Citrate/HCl buffers of 0.2 mol/l were used for obtaining the required acid pH conditions. […] Residual activities of the proline specific protease were measured kinetically at 405 nm using the synthetic substrates Ala-Ala-Pro-pNA (Bachem, Switzerland). […] Absorbance was measured kinetically for 10 min at 405 nm at 30° C. making use of a TECAN Genios MTP Reader (Salzburg, Vienna)."}, "Sodium caseinate": {"test_system": "Sodium caseinate", "experiment": "Casein hydrolysis under simulated stomach conditions (visual impression, di-/tripeptides, free amino acids)", "assay_type": "biochemical", "conditions": "2.5 mg/ml caseinate suspension, pH 4.0, 37 degrees C., 0.25 mg/ml of each enzyme"}},
  "note": "Non-standard residues stand in square brackets, D forms with d. Residues, ends and D or L forms follow the SMILES beside them. *: point of attachment. Sta = CC(C)C[C@H](N)[C@@H](O)CC(=O)O; Isovaleryl = CC(C)CC(=O)*",
  "data": [
    {"compound": "CC(C)CC(=O)N[C@H](C(=O)N[C@H](C(=O)N[C@@H](CC(C)C)[C@@H](O)CC(=O)N[C@@H](C)C(=O)N[C@@H](CC(C)C)[C@@H](O)CC(=O)O)C(C)C)C(C)C", "note": "[pepstatin, Pepstatin] (Isovaleryl-VV[Sta]A[Sta]-OH)", "values": [
      {"measurement": "inhibitory effect on the proline specific protease", "setting": "[1]", "result": "no inhibitory effect"}
    ]},
    {"compound": "Pepsin: gastric aspartic endoprotease (EC 3.4.23.1) from porcine stomach mucosa, Sigma", "values": [
      {"measurement": "Visual impression after 45″", "setting": "Sodium caseinate", "result": "turbid"},
      {"measurement": "Visual impression after 90″", "setting": "Sodium caseinate", "result": "clear"}
    ]}
  ]
}
